Assay [1] deals with full-length RORγt in Jurkat cells (Homo sapiens (Human), UniProt P51449). As to the kind of experiment: RORγt 5×RORE Assay in Jurkat Cells (Assay 2). It is filed as cell-based. Particulars: 5×RORE Nanoluc luciferase reporter.
Assay [2] addresses recombinant RORγ Ligand Binding Domain (LBD) protein (Homo sapiens (Human), UniProt P51449). Put plainly: Radio-Ligand RORγ Binding Assay (Assay 1). To be noted: competition with 25-hydroxy [26,27-3H]-cholesterol, SPA. In short, it runs like this: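 Scintillation proximity competition against 25-hydroxy [26,27-^3H]-cholesterol (8.6 nM solution) for 6×His-GST-tagged RORγ LBD (24 nM solution) in HEPES pH 7.4 with CHAPS, β-octylglucopyranoside and DTT; semi-log compound dilutions, ~1 h total at rt with poly-Lys YSi beads. IC50 from four-parameter fit; Ki derived from [RL] and radioligand KD.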

Chain of recombinant RORγ Ligand Binding Domain (LBD) protein (P51449 269-508): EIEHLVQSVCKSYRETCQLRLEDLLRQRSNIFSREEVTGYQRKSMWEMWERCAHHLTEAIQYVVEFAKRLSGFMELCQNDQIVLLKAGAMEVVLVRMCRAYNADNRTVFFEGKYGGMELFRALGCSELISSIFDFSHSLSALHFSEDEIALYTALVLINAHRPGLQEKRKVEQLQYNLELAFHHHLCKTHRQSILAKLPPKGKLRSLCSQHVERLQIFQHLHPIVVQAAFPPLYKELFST
Chain of full-length RORγt in Jurkat cells (P51449 other isoform, or with tags, fused parts or gaps): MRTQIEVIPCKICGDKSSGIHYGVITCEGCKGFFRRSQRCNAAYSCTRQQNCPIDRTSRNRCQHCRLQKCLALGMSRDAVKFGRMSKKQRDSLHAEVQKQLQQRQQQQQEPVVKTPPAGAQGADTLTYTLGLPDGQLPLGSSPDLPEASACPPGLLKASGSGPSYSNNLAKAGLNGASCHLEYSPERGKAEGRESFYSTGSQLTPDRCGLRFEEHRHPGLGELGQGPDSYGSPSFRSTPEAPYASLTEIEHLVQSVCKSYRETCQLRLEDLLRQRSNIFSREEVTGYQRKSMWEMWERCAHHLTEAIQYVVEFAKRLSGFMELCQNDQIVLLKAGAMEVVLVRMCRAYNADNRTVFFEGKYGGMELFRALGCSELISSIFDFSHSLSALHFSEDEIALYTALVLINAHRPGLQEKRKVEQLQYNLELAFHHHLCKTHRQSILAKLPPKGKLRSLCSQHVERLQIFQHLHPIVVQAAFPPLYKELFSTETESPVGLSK

The compound `CCS(=O)(=O)c1ccc(CNC(=O)c2ccc3c(c2)nc(C2CC2)n3Cc2cccc3c2OC(F)(F)O3)nc1` [I-64, 2-cyclopropyl-1-((2,2-difluorobenzo[d][1,3]dioxol-4-yl)methyl)-N-((5-(ethylsulfonyl)pyridin-2-yl)methyl)-1H-benzo[d]imidazole-5-carboxamide] came in with an IC50 in assay [1] below 100 nM. Moreover, the Ki in assay [2] was below 100 nM.
In the case of `CCS(=O)(=O)c1ccc(CNC(=O)c2ccc3c(c2)nc(C2CCC2)n3Cc2cccc3c2OC(F)(F)O3)nc1` [I-65, 2-cyclobutyl-1-((2,2-difluorobenzo[d][1,3]dioxol-4-yl)methyl)-N-((5-(ethylsulfonyl)pyridin-2-yl)methyl)-1H-benzo[d]imidazole-5-carboxamide], the IC50 in assay [1] was below 100 nM. The inhibition constant (Ki) in assay [2] was below 100 nM.
Take `CCS(=O)(=O)c1ccc(CNC(=O)c2ccc3c(c2)nc(C(C)(F)F)n3Cc2cccc3c2OC(F)(F)O3)nc1` [I-66, 1-((2,2-difluorobenzo[d][1,3]dioxol-4-yl)methyl)-2-(1,1-difluoroethyl)-N-((5-(ethylsulfonyl)pyridin-2-yl)methyl)-1H-benzo[d]imidazole-5-carboxamide]: the IC50 in assay [1] is below 100 nM. Further, the Ki in assay [2] is below 100 nM.
`CCS(=O)(=O)c1ccc(CNC(=O)c2ccc3c(c2)nc(C2(F)CC2)n3Cc2cccc3c2OC(F)(F)O3)nc1` [I-67, 1-((2,2-difluorobenzo[d][1,3]dioxol-4-yl)methyl)-N-((5-(ethylsulfonyl)pyridin-2-yl)methyl)-2-(1-fluorocyclopropyl)-1H-benzo[d]imidazole-5-carboxamide]: in assay [1], the IC50 is below 100 nM. Moreover, in assay [2], the Ki was below 100 nM.
For the compound `CS(=O)(=O)c1ccc(CNC(=O)c2ccc3c(c2)nc(C2(F)CC2)n3Cc2cccc3c2OC(F)(F)O3)nc1` [I-68, 1-((2,2-difluorobenzo[d][1,3]dioxol-4-yl)methyl)-2-(1-fluorocyclopropyl)-N-((5-(methylsulfonyl)pyridin-2-yl)methyl)-1H-benzo[d]imidazole-5-carboxamide], the IC50 in assay [1] is below 100 nM. Also, the Ki in assay [2] was below 100 nM.
In assay [1], `CCS(=O)(=O)c1ccc(CNC(=O)c2ccc3c(c2)nc(C2(F)CCC2)n3Cc2cccc3c2OC(F)(F)O3)nc1` [I-69, 1-((2,2-difluorobenzo[d][1,3]dioxol-4-yl)methyl)-N-((5-(ethylsulfonyl)pyridin-2-yl)methyl)-2-(1-fluorocyclobutyl)-1H-benzo[d]imidazole-5-carboxamide] returned an IC50 below 100 nM. Moreover, the Ki in assay [2] is below 100 nM.
As to `CS(=O)(=O)c1ccc(CNC(=O)c2ccc3c(c2)nc(C(F)(F)F)n3Cc2cccc3c2OC(F)(F)O3)nc1` [I-70, 1-((2,2-difluorobenzo[d][1,3]dioxol-4-yl)methyl)-N-((5-(methylsulfonyl)pyridin-2-yl)methyl)-2-(trifluoromethyl)-1H-benzo[d]imidazole-5-carboxamide], the IC50 in assay [1] was below 100 nM. In assay [2], the Ki was below 100 nM.
`CS(=O)(=O)N1CCC(CNC(=O)c2ccc3c(c2)nc(C(F)(F)F)n3Cc2cccc3c2OC(F)(F)O3)CC1` [I-71, 1-((2,2-difluorobenzo[d][1,3]dioxol-4-yl)methyl)-N-((1-(methylsulfonyl)piperidin-4-yl)methyl)-2-(trifluoromethyl)-1H-benzo[d]imidazole-5-carboxamide] had a concentration for half-maximal inhibition (IC50) in assay [1] below 100 nM. In addition, in assay [2], the Ki is below 100 nM.
Turning to `CS(=O)(=O)N1CCC(CNC(=O)c2ccc3c(c2)nc(C2CC2)n3Cc2cccc3c2OC(F)(F)O3)CC1` [I-72, 2-cyclopropyl-1-((2,2-difluorobenzo[d][1,3]dioxol-4-yl)methyl)-N-((1-(methylsulfonyl)piperidin-4-yl)methyl)-1H-benzo[d]imidazole-5-carboxamide], the IC50 in assay [1] was below 100 nM. In addition, the Ki in assay [2] was below 100 nM.
Regarding `CS(=O)(=O)N1CCC(CNC(=O)c2ccc3c(c2)nc(C2(F)CC2)n3Cc2cccc3c2OC(F)(F)O3)CC1` [I-73, 1-((2,2-difluorobenzo[d][1,3]dioxol-4-yl)methyl)-2-(1-fluorocyclopropyl)-N-((1-(methylsulfonyl)piperidin-4-yl)methyl)-1H-benzo[d]imidazole-5-carboxamide], the half-maximal inhibitory concentration (IC50) in assay [1] is below 100 nM. Further, the Ki in assay [2] was below 100 nM.
As for `COC(=O)CS(=O)(=O)N1CCC(CNC(=O)c2ccc3c(c2)nc(C(F)(F)F)n3Cc2cccc3c2OC(F)(F)O3)CC1` [I-74, methyl 2-((4-((1-((2,2-difluorobenzo[d][1,3]dioxol-4-yl)methyl)-2-(trifluoromethyl)-1H-benzo[d]imidazole-5-carboxamido)methyl)piperidin-1-yl)sulfonyl)acetate], the IC50 in assay [1] was below 100 nM. Also, in assay [2], the Ki is below 100 nM.
In the case of `CNC(=O)CS(=O)(=O)N1CCC(CNC(=O)c2ccc3c(c2)nc(C(F)(F)F)n3Cc2cccc3c2OC(F)(F)O3)CC1` [I-75, 1-((2,2-difluorobenzo[d][1,3]dioxol-4-yl)methyl)-N-((1-((2-(methylamino)-2-oxoethyl)sulfonyl)piperidin-4-yl)methyl)-2-(trifluoromethyl)-1H-benzo[d]imidazole-5-carboxamide], in assay [1], the IC50 is below 100 nM. For the same compound, the Ki in assay [2] is below 100 nM.
`COC(=O)C(NC(=O)c1ccc2c(c1)nc(C(F)(F)F)n2Cc1cccc2c1OC(F)(F)O2)C1CCN(S(C)(=O)=O)CC1` (stereo not drawn) [I-76, methyl 2-(1-((2,2-difluorobenzo[d][1,3]dioxol-4-yl)methyl)-2-(trifluoromethyl)-1H-benzo[d]imidazole-5-carboxamido)-2-(1-(methylsulfonyl)piperidin-4-yl)acetate]: in assay [1], the IC50 was below 100 nM. Also, the Ki in assay [2] is below 100 nM.
In assay [1], `CNS(=O)(=O)N1CCC(CNC(=O)c2ccc3c(c2)nc(C(F)(F)F)n3Cc2cccc3c2OC(F)(F)O3)CC1` [I-77, 1-((2,2-difluorobenzo[d][1,3]dioxol-4-yl)methyl)-N-((1-(N-methylsulfamoyl)piperidin-4-yl)methyl)-2-(trifluoromethyl)-1H-benzo[d]imidazole-5-carboxamide] returned an IC50 below 100 nM. Besides, in assay [2], the Ki is below 100 nM.
For the compound `NC(=O)CS(=O)(=O)N1CCC(CNC(=O)c2ccc3c(c2)nc(C(F)(F)F)n3Cc2cccc3c2OC(F)(F)O3)CC1` [I-78, N-((1-((2-amino-2-oxoethyl)sulfonyl)piperidin-4-yl)methyl)-1-((2,2-difluorobenzo[d][1,3]dioxol-4-yl)methyl)-2-(trifluoromethyl)-1H-benzo[d]imidazole-5-carboxamide], in assay [1], the IC50 is below 100 nM. In addition, the Ki in assay [2] is below 100 nM.
In the case of `CNC(=O)CS(=O)(=O)N1CCC(CNC(=O)c2ccc3c(c2)nc(C2CC2)n3Cc2cccc3c2OC(F)(F)O3)CC1` [I-79, 2-cyclopropyl-1-((2,2-difluorobenzo[d][1,3]dioxol-4-yl)methyl)-N-((1-((2-(methylamino)-2-oxoethyl)sulfonyl)piperidin-4-yl)methyl)-1H-benzo[d]imidazole-5-carboxamide], the IC50 in assay [1] was 100 to 1000 nM. Moreover, in assay [2], the Ki was below 100 nM.
In the same order, the values of `CCS(=O)(=O)c1ccc([C@H](CO)NC(=O)c2ccc3c(c2)nc(C(F)(F)F)n3Cc2cccc3c2OCC3)cc1` [I-80, (R)-1-((2,3-dihydrobenzofuran-7-yl)methyl)-N-(1-(4-(ethylsulfonyl)phenyl)-2-hydroxyethyl)-2-(trifluoromethyl)-1H-benzo[d]imidazole-5-carboxamide] are 100 to 1000 nM and below 100 nM.
Regarding `CCS(=O)(=O)c1ccc([C@H](CO)NC(=O)c2ccc3c(c2)nc(C(F)(F)F)n3Cc2cccc3c2OCO3)cc1` [I-81, (R)-1-(benzo[d][1,3]dioxol-4-ylmethyl)-N-(1-(4-(ethylsulfonyl)phenyl)-2-hydroxyethyl)-2-(trifluoromethyl)-1H-benzo[d]imidazole-5-carboxamide], the IC50 in assay [1] was below 100 nM. For the same compound, the Ki in assay [2] is below 100 nM.
For `CCS(=O)(=O)c1ccc(CNC(=O)c2ccc3c(c2)nc(C(F)(F)F)n3Cc2cc(OC)cc(OC)c2)cc1` [I-82, 1-(3,5-dimethoxybenzyl)-N-(4-(ethylsulfonyl)benzyl)-2-(trifluoromethyl)-1H-benzo[d]imidazole-5-carboxamide], in assay [1], the IC50 is above 1000 nM. Moreover, in assay [2], the Ki is below 100 nM.
For `CCS(=O)(=O)c1ccc(CNC(=O)c2ccc3c(c2)nc(C(F)(F)F)n3Cc2ccc(OC)c(C#N)c2)cc1` [I-83, 1-(3-cyano-4-methoxybenzyl)-N-(4-(ethylsulfonyl)benzyl)-2-(trifluoromethyl)-1H-benzo[d]imidazole-5-carboxamide], in that order: 100 to 1000 nM and below 100 nM.
With `CCS(=O)(=O)c1ccc(CNC(=O)c2ccc3c(c2)nc(C(F)(F)F)n3Cc2ccc(OC(F)(F)F)cc2)cc1` [I-84, N-(4-(ethylsulfonyl)benzyl)-1-(4-(trifluoromethoxy)benzyl)-2-(trifluoromethyl)-1H-benzo[d]imidazole-5-carboxamide], the IC50 in assay [1] was in the range of 100 to 1000 nM. For the same compound, in assay [2], the Ki was below 100 nM.
For `CCS(=O)(=O)c1ccc(CNC(=O)c2ccc3c(c2)nc(C(F)(F)F)n3Cc2ccc(C#N)cc2)cc1` [I-85, 1-(4-cyanobenzyl)-N-(4-(ethylsulfonyl)benzyl)-2-(trifluoromethyl)-1H-benzo[d]imidazole-5-carboxamide], the IC50 in assay [1] was above 1000 nM. Moreover, the Ki in assay [2] was below 100 nM.
With `CCS(=O)(=O)c1ccc(CNC(=O)c2ccc3c(c2)nc(C(F)(F)F)n3Cc2cccc(OC)c2)cc1` [I-88, N-(4-(ethylsulfonyl)benzyl)-1-(3-methoxybenzyl)-2-(trifluoromethyl)-1H-benzo[d]imidazole-5-carboxamide], in assay [1], the IC50 is below 100 nM. Besides, the Ki in assay [2] is below 100 nM.
The compound `CCS(=O)(=O)c1ccc(CNC(=O)c2ccc3c(c2)nc(C(F)(F)F)n3Cc2ccnc(OC)c2)cc1` [I-89, N-(4-(ethylsulfonyl)benzyl)-1-((2-methoxypyridin-4-yl)methyl)-2-(trifluoromethyl)-1H-benzo[d]imidazole-5-carboxamide] showed an IC50 in assay [1] of 100 to 1000 nM. Also, in assay [2], the Ki was below 100 nM.

Source of the values: patent US10829481B2, “Benzimidazole derivatives as modulators of ROR-gamma” (Vitae Pharmaceuticals, LLC, priority 2016, dated 2020).
